Data published in patent US20090075941A1, “TREATING NEOPLASMS” (THE UAB RESEARCH FOUNDATION, priority 2006, published 2009).

Columns and labels:
[1] = tested on: p38 phosphorylation in AB12 cells; experiment: Western blot, phosphorylation of p38 (Example 1); type: cell-based, mouse; details: 24 h
Method: (§1) Western blotting. AB12 and AC29 cells were plated on 6-well plates in normal culture medium until near confluency. The cells were then rinsed with sterile PBS and cultured for further 24 h in serum-free culture medium, in the presence or absence of 2×10^−4-10^−5 M risedronate, zoledronate or PBS control, with or without 25 μM geranylgeraniol, or the same volume of ethanol as a vehicle control. Culture medium was discarded and the cells were harvested in lysis buffer (20 mM Tris pH 7.4, 150 mM NaCl, 1 mM EDTA, 1 mM EGTA, 1% Triton, 2.5 mM sodium pyrophosphate, 1 mM β-glycerolphosphate, 1 mM Na3VO4, 1 μg/ml leupeptin (Cell Signaling Technology, Inc.; Danvers, Mass.)) and clarified by centrifugation. After boiling the supernatants in reducing SDS sample buffer, equal amounts of protein (˜50 μg) were loaded per lane and the samples were electrophoresed on 10% polyacrylamide SDS gel and transferred to a nitrocellulose membrane. Unprenylated Rap1A was detected with the antibody SC-1482 and total Rap1 (both prenylated and unprenylated forms of both Rap1A and Rap1B) was detected with the antibody SC-65 (Santa Cruz Biotechnology, Inc.; Santa Cruz, Calif.), according to the manufacturer's recommendations. The phosphorylation status of p38 was studied with anti-phospho-p38 and anti-total p38 antibodies (Cell Signaling Technology, Inc.), as recommended by the manufacturer. […]

[2] = tested on: p38 phosphorylation in AC29 cells; experiment: Western blot, phosphorylation of p38 (Example 1); type: cell-based, mouse; details: 24 h
Method: as §1

[3] = tested on: MDA-MB-231 cells; experiment: Cell viability, MTS-assay; type: cell-based, human
Method: Cell viability assays. Cells were plated on 96-well plates at the density of 1×10^3 cells in 100 μl per well in normal culture medium, with or without of the indicated concentrations of the various bisphosphonate combinations and or 1 mM CaCl2, 1 mM EGTA or vehicle and cultured for 48 h. Cell viability was assessed with 3-(4,5-dimethylthiazol-2-yl)-5-(3-carboxy tetrazolium, inner salt (MTS)-assays (CellTiter Aqueous One 96 from Promega; Madison, Wis.) according to the manufacturer's instructions. For each treatment, a PBS-control group was run simultaneously on the same plate. The results for each treatment were calculated as % of the corresponding PBS-group.

[4] = tested on: unprenylated Rap1A in AC29 cells; experiment: Western blot, accumulation of unprenylated Rap1A (Example 1); type: cell-based, mouse
Method: (§2) Western blotting. AB12 and AC29 cells were plated on 6-well plates in normal culture medium until near confluency. The cells were then rinsed with sterile PBS and cultured for further 24 h in serum-free culture medium, in the presence or absence of 2×10^−4-10^−5 M risedronate, zoledronate or PBS control, with or without 25 μM geranylgeraniol, or the same volume of ethanol as a vehicle control. Culture medium was discarded and the cells were harvested in lysis buffer (20 mM Tris pH 7.4, 150 mM NaCl, 1 mM EDTA, 1 mM EGTA, 1% Triton, 2.5 mM sodium pyrophosphate, 1 mM β-glycerolphosphate, 1 mM Na3VO4, 1 μg/ml leupeptin (Cell Signaling Technology, Inc.; Danvers, Mass.)) and clarified by centrifugation. After boiling the supernatants in reducing SDS sample buffer, equal amounts of protein (˜50 μg) were loaded per lane and the samples were electrophoresed on 10% polyacrylamide SDS gel and transferred to a nitrocellulose membrane. Unprenylated Rap1A was detected with the antibody SC-1482 and total Rap1 (both prenylated and unprenylated forms of both Rap1A and Rap1B) was detected with the antibody SC-65 (Santa Cruz Biotechnology, Inc.; Santa Cruz, Calif.), according to the manufacturer's recommendations. The phosphorylation status of p38 was studied with anti-phospho-p38 and anti-total p38 antibodies (Cell Signaling Technology, Inc.), as recommended by the manufacturer. The protein bands were visualized by chemiluminescence using SuperSignal West Pico ECL kit (Pierce; Rockford, Ill.).

[5] = tested on: unprenylated Rap1A in AB12 cells; experiment: as above; type: cell-based, mouse
Method: as §2

[6] = tested on: AB12 cells; experiment: Intraperitoneal mouse mesothelioma model, survival; type: in vivo, BALB/c mice; details: AB12 i.p.
Method: In vivo mesothelioma models. Female BALB/c mice, four to eight weeks of age, were obtained from the National Cancer Institute-Frederick Cancer Research Facility (Frederick, Md.) and were housed in the Pathogen-Free Rodent Shared Facility (Comprehensive Cancer Center, University of Alabama at Birmingham). All animal procedures were performed, in accordance with recommendations for the proper care and use of laboratory animals and were approved by the local IACUC. Subcutaneous (s.c.) and intraperitoneal (i.p.) mouse mesothelioma models were evaluated. In the s.c. model, 3×10^6 AB12 cells were first injected s.c. into cohorts of BALB/c mice. Treatments with i.p. BPs or vehicle were started when tumors became palpable on day 10 and continued every six days for a total of 4 treatments. Tumor size was measured bidimensionally with calipers every two to three days and tumor volume calculated by the formula (length×width^2)÷2. Mice were euthanized before tumors reached the size of 2000 mm^3. In the i.p. model, AC29 or AB12 cells (5×10^5/0.5 ml) were injected i.p, into cohorts of 10-12 BALB/c using a 26-gauge needle. Treatment was initiated 6 days after tumor inoculation and the mice were followed for survival. In the i.p. model risedronate (15 mg/kg), zoledronate (0.5 mg/kg) or PBS were administered i.p. three times a week for two weeks.

[7] = tested on: unprenylated Rap1A in AB-12 mesothelioma cells; experiment: Western blot, unprenylated Rap1A (Example 2); type: cell-based, mouse; details: AB-12 cells; 24 h
Method: (§3) Western blot analysis. Cells were cultured on 6-well plates in normal culture medium until near confluency. The cells were then rinsed with sterile PBS and cultured for further 24 h in serum-tree culture medium, in the presence or absence of the indicated bisphosphonates. Some cultures were also treated with 25 μM geranylgeraniol (cold, all trans), 1.0 μg/ml LPS (Sigma; St. Louis, Mo.) 10 ng/ml IL-1β (R&D Systems; Minneapolis, Minn.) or TNF-α (R&D Systems). To study bisphosphonate effects on connexin-43 expression, the cells were cultured for 24 h in serum-free culture medium in the presence of the indicated bisphosphonates or PBS as a vehicle control. Culture medium was then discarded, the cells were quickly lysed and prepared into Western blot samples, as described in Merrell et al. (2000) Breast Cancer Res. Treat. 81, 231-241. After boiling the supernatants in reducing sodium docedyl sulfate (SDS) sample buffer, equal amounts of protein (˜20-50 μg) were loaded per lane and the samples were electrophoresed on 10% SDS polyacrylamide gel and transferred to a nitrocellulose membrane. To detect, unprenylated Rap1A, the blots were incubated overnight at 4° C. with the antibody SC-1482 (Santa Cruz Technology (San Diego, Calif.)), diluted 1:1000 in Tris-buffered saline, 0.1% (v/v) Tween-20 (TEST), and then with peroxidase-conjugated anti-goat serum (Pierce; Rockford, Ill.), diluted 1:1000 in TBST. Total Rap1 was detected from stripped blots in a similar fashion, with the antibody SC-65 (Santa Cruz Technology). The phosphorylation status of p38 was investigated using anti-phospho-p38 (Cell Signaling; Beverly, Mass.) and after stripping of the membrane, with anti-total p38 antibodies (Cell Signaling), according to the manufacturer's instructions. Expression of connexin-43 was detected with a rabbit anti-connexin-43 antibody (Zymed Laboratories, Inc.; San Francisco, Calif.), diluted 1:1000 in TBST. The protein bands were visualized by chemiluminescence using SuperSignal West Pico ECL kit (Pierce Biotechnology, Inc.; Rockford, Ill.).

[8] = tested on: unprenylated Rap1A in MDA-MB-231 breast cancer cells; experiment: Western blot, unprenylated Rap1A (Example 2); type: cell-based, human; details: MDA-MB-231 cells; 24 h
Method: as §3

SMILES: O=P(O)(O)C(O)(Cc1cccnc1)P(=O)(O)O [risedronate]
- p38 phosphorylation [1]: dose-dependent increase
- p38 phosphorylation [2]: dose-dependent increase
- effect of added Ca2+ on the bisphosphonate's growth inhibitory effect ([3]; 1 mM CaCl2, N-BP 10^−4 M or p-BP 10^−3 M): enhanced
- effect of excess clodronate on the viability change induced by the nitrogen-containing bisphosphonate ([3]; N-BP 10^−4 M + clodronate 10^−3 M): did not interfere
- effect of excess etidronate on the viability change induced by the nitrogen-containing bisphosphonate ([3]; N-BP 10^−4 M + etidronate 10^−3 M): increased
- accumulation of unprenylated Rap1A ([4]; 24 h, 2×10^−4-2×10^−6 M): dose-dependent accumulation
- reversal of BP-induced accumulation of unprenylated Rap1A by geranylgeraniol ([4]; with 25 μM geranylgeraniol): almost completely reversed
- accumulation of unprenylated Rap1A ([5]; 24 h, 2×10^−4-2×10^−6 M): dose-dependent accumulation
- reversal of BP-induced accumulation of unprenylated Rap1A by geranylgeraniol ([5]; with 25 μM geranylgeraniol): almost completely reversed
- long-term (> 60 days) survivors ([6]; groups of 12 mice, risedronate 15 mg/kg i.p.): three
- median survival ([6]; zoledronate 0.5 mg/kg or risedronate 15 mg/kg i.p. three times a week for two weeks, PBS 26 days): 30 days
- accumulation of unprenylated Rap1A [7]: dose-dependent accumulation
- accumulation of unprenylated Rap1A [8]: dose-dependent accumulation
